“And” between values parts separate entries of the source, which are not always exact repeats. Equal values may be shown once. Each block holds one compound with its values, some of them ahead of it.
How the values were obtained:
[1] = target: T1, FLT3 kinase (Homo sapiens, UniProt P36888); test: Competition binding assay, FLT3 Kd
T1 construct: made in house; host or cells: T7 phage display or HEK-293 cells
T1 sequence (P36888 27-993): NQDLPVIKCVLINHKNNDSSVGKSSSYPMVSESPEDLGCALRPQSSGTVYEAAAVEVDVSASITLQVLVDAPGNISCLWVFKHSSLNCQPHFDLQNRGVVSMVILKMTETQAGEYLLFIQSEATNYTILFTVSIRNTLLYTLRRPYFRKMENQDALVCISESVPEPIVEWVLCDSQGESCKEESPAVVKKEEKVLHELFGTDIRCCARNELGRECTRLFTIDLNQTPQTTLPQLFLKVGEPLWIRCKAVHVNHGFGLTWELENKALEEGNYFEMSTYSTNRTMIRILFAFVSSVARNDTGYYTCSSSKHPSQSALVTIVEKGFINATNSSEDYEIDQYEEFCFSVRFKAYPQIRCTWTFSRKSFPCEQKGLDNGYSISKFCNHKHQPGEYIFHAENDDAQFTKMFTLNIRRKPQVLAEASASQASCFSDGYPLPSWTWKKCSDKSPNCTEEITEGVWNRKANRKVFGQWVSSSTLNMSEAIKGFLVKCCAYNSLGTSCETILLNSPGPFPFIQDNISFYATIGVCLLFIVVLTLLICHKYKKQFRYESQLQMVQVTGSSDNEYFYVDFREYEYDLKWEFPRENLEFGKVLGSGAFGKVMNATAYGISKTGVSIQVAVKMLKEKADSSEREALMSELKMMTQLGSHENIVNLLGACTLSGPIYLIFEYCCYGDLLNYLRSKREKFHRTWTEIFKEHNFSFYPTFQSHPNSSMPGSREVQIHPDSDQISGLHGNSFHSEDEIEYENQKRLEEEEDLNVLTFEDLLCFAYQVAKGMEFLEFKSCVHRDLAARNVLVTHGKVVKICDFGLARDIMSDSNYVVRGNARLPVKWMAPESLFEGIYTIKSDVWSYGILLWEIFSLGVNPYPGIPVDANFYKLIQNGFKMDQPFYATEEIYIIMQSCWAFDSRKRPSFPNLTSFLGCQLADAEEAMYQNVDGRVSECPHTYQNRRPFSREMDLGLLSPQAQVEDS
Procedure, shortened: (§1)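 Kinases expressed as T7 phage fusions or in HEK-293 cells with DNA tags competed with test compound for immobilized biotinylated affinity ligand on streptavidin beads. Binding ran 1 hour at room temperature in SeaBlock/PBS/Tween/DTT buffer. Bound kinase was eluted with non-biotinylated ligand and quantified by qPCR; Kd from eleven-point threefold dilutions.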

[2] = target: T2, KIT kinase (Homo sapiens, UniProt P10721); test: Competition binding assay, KIT Kd
T2 construct: made in house; host or cells: T7 phage display or HEK-293 cells
Procedure, shortened: as §1

[3] = target: T3, CSF-1R kinase (Homo sapiens, UniProt P07333); test: Competition binding assay, CSF-1R Kd
T3 construct: made in house; host or cells: T7 phage display or HEK-293 cells
Procedure, shortened: as §1

[4] = system: MV4-11 cells; test: MV4-11 cell proliferation assay (Alamar Blue); assay type: cell-based; settings: Homo sapiens, MV4-11, 72 h, 3 days incubation
Procedure, shortened: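 Flt3-ITD MV4-11 cells were serum-starved overnight in Iscove's with 0.5% FBS, then given compound at 9 half-log concentrations (0.5% DMSO) for 3 days at 37° C. Alamar Blue reduction was read after 3 h by fluorescence (560/590 nm). IC50 is the mean of duplicates versus negative control.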

[5] = target: kinase panel containing either 359 or 386 distinct kinases; test: Selectivity score S10 from competition binding against a panel of kinases; settings: compounds at 10 μM; for Kinase specificty: S(10)-359 panel: panel of 359 distinct kinases
Method: Competition binding assays used herein were developed, validated and performed as described in Fabian et al., Nature Biotechnology 2005, 23,329-336. Kinases were produced as fusions to T7 phage (See, Fabian et al. or WO04/015142) or alternatively, the kinases were expressed in HEK-293 cells and subsequently tagged with DNA for PCR detection (See, WO08/005,310). For the binding assays, streptavidin-coated magnetic beads were treated with biotinylated affinity ligands for 30 min at room temperature to generate affinity resins. The liganded beads were blocked with excess biotin and washed with blocking buffer (SeaBlock (Pierce), 1% BSA, 0.05% Tween 20, 1 mM DTT) to remove unbound ligand and to reduce non-specific binding. Binding reactions were assembled by combining kinase, liganded affinity beads, and test compounds in 1× binding buffer (20% SeaBlock, 0.17×PBS, 0.05% Tween 20, 6 mM DTT). Test compounds were prepared as 100× stocks in DMSO and diluted into the aqueous environment. Kds were determined using an eleven point threefold serial dilutions. DMSO or control compounds were was added to control assays lacking a test compound. Primary screen assays were performed in polypropylene 384-well plates in a final volume of 20-40 μL, while Kd determinations were performed in polystyrene 96-well plates in a final volume of 135 μL. The assay plates were incubated at room temperature with shaking for 1 hour to allow the binding reactions to reach equilibrium, and the affinity beads were washed extensively with wash buffer (1×PBS, 0.05% Tween 20) to remove unbound protein. The beads were then resuspended in elution buffer (1×PBS, 0.05% Tween 20, 0.5 μM non-biotinylated affinity ligand) and incubated at room temperature with shaking for 30 min. The kinase concentration in the eluates was measured by quantitative PCR.
A selectivity score (S10) is a quantitative measure of selectivity of a compound against a panel of kinases. An S10 was calculated for a compound by dividing the number of kinases found to have a percent of control (DMSO) less than 10 by the total number of distinct kinases tested (excluding mutant variants). Percent of control (POC) is calculated by subtracting the signal of the control compound (POC=0) from the signal of the test compound and dividing the outcome by the signal of DMSO (POC=100) minus the signal of the control compound. For the compounds disclosed herein, S10 scores were obtained by testing the compounds at 10 μM concentration in a kinase panel containing either 359 or 386 distinct kinases.

T3 sequence (P07333 20-972): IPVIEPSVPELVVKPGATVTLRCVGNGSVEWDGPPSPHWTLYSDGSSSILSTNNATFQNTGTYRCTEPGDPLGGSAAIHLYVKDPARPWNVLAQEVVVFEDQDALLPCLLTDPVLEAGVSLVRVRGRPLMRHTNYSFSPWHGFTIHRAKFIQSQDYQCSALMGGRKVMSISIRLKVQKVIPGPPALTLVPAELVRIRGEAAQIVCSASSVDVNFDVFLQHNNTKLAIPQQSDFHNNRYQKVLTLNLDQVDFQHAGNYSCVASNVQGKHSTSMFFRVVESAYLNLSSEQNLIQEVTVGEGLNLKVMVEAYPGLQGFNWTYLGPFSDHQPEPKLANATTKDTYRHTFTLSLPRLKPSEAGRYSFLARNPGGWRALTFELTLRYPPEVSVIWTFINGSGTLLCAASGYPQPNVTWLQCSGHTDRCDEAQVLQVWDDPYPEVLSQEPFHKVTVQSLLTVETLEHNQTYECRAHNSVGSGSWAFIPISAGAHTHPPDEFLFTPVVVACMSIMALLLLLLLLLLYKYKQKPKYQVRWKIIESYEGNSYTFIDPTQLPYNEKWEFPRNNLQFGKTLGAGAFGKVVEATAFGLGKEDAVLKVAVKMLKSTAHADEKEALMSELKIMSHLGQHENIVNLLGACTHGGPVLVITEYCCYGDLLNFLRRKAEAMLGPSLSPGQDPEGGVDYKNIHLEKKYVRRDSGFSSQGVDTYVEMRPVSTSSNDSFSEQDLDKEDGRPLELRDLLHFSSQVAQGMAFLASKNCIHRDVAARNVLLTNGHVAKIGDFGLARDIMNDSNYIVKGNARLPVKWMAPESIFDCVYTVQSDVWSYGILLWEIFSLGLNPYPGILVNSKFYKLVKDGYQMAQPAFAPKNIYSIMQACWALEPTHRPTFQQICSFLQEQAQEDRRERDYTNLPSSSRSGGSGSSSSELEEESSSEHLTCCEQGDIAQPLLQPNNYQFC
T2 sequence (P10721 26-976): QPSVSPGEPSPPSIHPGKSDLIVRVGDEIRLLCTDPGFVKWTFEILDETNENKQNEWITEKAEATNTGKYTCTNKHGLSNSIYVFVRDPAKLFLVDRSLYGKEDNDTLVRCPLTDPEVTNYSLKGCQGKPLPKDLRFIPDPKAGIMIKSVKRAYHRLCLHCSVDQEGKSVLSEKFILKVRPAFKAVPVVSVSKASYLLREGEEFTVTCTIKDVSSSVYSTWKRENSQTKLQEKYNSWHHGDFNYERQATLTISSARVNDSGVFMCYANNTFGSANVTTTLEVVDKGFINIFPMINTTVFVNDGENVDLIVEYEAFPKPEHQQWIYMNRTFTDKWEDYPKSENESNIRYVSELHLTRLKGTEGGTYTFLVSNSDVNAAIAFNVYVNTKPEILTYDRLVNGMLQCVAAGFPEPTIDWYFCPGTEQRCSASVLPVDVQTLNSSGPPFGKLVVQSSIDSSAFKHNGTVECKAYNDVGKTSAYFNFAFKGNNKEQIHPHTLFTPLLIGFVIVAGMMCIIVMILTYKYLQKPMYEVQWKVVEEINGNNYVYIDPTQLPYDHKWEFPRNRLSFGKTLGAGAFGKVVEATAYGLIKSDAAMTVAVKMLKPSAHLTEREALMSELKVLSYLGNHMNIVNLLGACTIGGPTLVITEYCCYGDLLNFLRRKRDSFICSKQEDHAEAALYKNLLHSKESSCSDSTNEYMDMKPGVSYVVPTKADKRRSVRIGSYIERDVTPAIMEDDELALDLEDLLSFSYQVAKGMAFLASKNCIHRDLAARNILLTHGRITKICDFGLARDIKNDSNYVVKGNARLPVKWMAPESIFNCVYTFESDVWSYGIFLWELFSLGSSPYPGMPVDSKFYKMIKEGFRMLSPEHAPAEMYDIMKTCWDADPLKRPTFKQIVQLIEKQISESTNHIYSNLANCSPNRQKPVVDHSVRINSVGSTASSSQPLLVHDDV

Kd [1]: ≤ 1 nM and 1 to 10 nM | Kd [2]: 1 to 10 nM | Kd [3]: ≤ 10 nM | IC50 [4]: ≤ 1 nM | Kinase specificty: S(10)-359 panel [5]: A (A≦0.1) | Kinase specificty: S(10)-386 panel ([5]; panel of 386 distinct kinases): A (A≦0.1)
SMILES: CC(C)(C)c1cc(NC(=O)Cc2ccc(-c3ccc(N)nc3)cc2)no1 [Example 18, 2-(4-(6-aminopyridin-3-yl)phenyl)-N-(5-tert-butylisoxazol-3-yl)acetamide]

Kd [1]: 1 to 10 nM | Kd [2]: 1 to 10 nM | Kd [3]: 10 to 100 nM | IC50 [4]: > 500 nM | Kinase specificty: S(10)-359 panel [5]: A (A≦0.1)
SMILES: CC(C)(C)c1cc(NC(=O)Nc2ccc(-c3ccc(N)nc3)s2)no1 [Example 19, 1-(5-(6-aminopyridin-3-yl)thiophen-2-yl)-3-(5-tert-butylisoxazol-3-yl)urea]

Kd [1]: ≤ 1 nM | Kd [2]: 1 to 10 nM | Kd [3]: ≤ 10 nM | IC50 [4]: 1 to 10 nM | Kinase specificty: S(10)-359 panel [5]: B (0.1<B≦0.2 nM)
SMILES: CC(C)(C)c1cc(NC(=O)Nc2cc(F)c(-c3ccc(N)nc3)cc2F)no1 [Example 20, 1-(4-(6-aminopyridin-3-yl)-2,5-difluorophenyl)-3-(5-tert-butylisoxazol-3-yl)urea]

Kd [1]: ≤ 1 nM | Kd [2]: ≤ 1 nM | Kd [3]: ≤ 10 nM | IC50 [4]: 1 to 10 nM | Kinase specificty: S(10)-359 panel [5]: B (0.1<B≦0.2 nM)
SMILES: CC(C)(C)c1cc(NC(=O)Nc2ccc(-c3cnc4c(c3)COCCN4)cc2)no1 [Example 21, 1-(5-tert-butylisoxazol-3-yl)-3-(4-(1,2,3,5-tetrahydropyrido[2,3-e][1,4]oxazepin-7-yl)phenyl)urea]

Kd [1]: ≤ 1 nM | Kd [2]: ≤ 1 nM | Kd [3]: ≤ 10 nM | IC50 [4]: ≤ 1 nM | Kinase specificty: S(10)-359 panel [5]: B (0.1<B≦0.2 nM)
SMILES: CC(C)(C)c1cc(NC(=O)Nc2ccc(-c3cnc(N)c(COCCO)c3)cc2)no1 [Example 22, 1-(4-(6-amino-5-((2-hydroxyethoxy)methyl)pyridin-3-yl)phenyl)-3-(5-tert-butylisoxazol-3-yl)urea]

Kd [1]: ≤ 1 nM | Kd [2]: 1 to 10 nM | Kd [3]: ≤ 10 nM | IC50 [4]: 10 to 100 nM | Kinase specificty: S(10)-359 panel [5]: A (A≦0.1)
SMILES: Cc1nc(N)ccc1-c1ccc(NC(=O)Nc2cc(C(C)(C)C)on2)cc1 [Example 23, 1-(4-(6-amino-2-methylpyridin-3-yl)phenyl)-3-(5-tert-butylisoxazol-3-yl)urea]

Kd [1]: ≤ 1 nM | Kd [2]: 1 to 10 nM | Kd [3]: ≤ 10 nM | IC50 [4]: 1 to 10 nM | Kinase specificty: S(10)-359 panel [5]: A (A≦0.1)
SMILES: Cc1cc(N)ncc1-c1ccc(NC(=O)Nc2cc(C(C)(C)C)on2)cc1 [Example 24, 1-(4-(6-amino-4-methylpyridin-3-yl)phenyl)-3-(5-tert-butylisoxazol-3-yl)urea]

Further lines, the compound ahead of its results:

SMILES: CC(C)(C)c1cc(NC(=O)Nc2ccc(-c3cnc(N)c(CO)c3)cc2)no1 [Example 8, 1-(4-(6-amino-5-(hydroxymethyl)pyridin-3-yl)phenyl)-3-(5-tert-butylisoxazol-3-yl)urea]
Kd [1]: 1 to 10 nM | Kd [2]: 1 to 10 nM | Kd [3]: ≤ 10 nM | IC50 [4]: > 500 nM | Kinase specificty: S(10)-359 panel [5]: A (A≦0.1)

SMILES: CC(C)(C)c1cc(NC(=O)Nc2ccc(-c3cnc4c(c3)CCC(=O)N4)cc2)no1 [Example 9, 1-(5-tert-butylisoxazol-3-yl)-3-(4-(7-oxo-5,6,7,8-tetrahydro-1,8-naphthyridin-3-yl)phenyl)urea]
Kd [1]: 1 to 10 nM | Kd [2]: 1 to 10 nM | Kd [3]: ≤ 10 nM | IC50 [4]: 10 to 100 nM | Kinase specificty: S(10)-359 panel [5]: A (A≦0.1)

SMILES: Cc1cc(N)nc(C)c1-c1ccc(NC(=O)Nc2cc(C(C)(C)C)on2)cc1 [Example 10, 1-(4-(6-amino-2,4-dimethylpyridin-3-yl)phenyl)-3-(5-tert-butylisoxazol-3-yl)urea]
Kd [1]: 1 to 10 nM | Kd [2]: 1 to 10 nM | Kd [3]: ≤ 10 nM | IC50 [4]: 100 to 500 nM | Kinase specificty: S(10)-359 panel [5]: A (A≦0.1)

SMILES: CC(C)(C)c1cc(NC(=O)Nc2ccc(-c3ccc(N)nc3)c(F)c2)no1 [Example 11, 1-(4-(6-aminopyridin-3-yl)-3-fluorophenyl)-3-(5-tert-butylisoxazol-3-yl)urea]
Kd [1]: ≤ 1 nM | Kd [2]: 1 to 10 nM | Kd [3]: ≤ 10 nM | IC50 [4]: 1 to 10 nM | Kinase specificty: S(10)-359 panel [5]: A (A≦0.1)

SMILES: CC(C)(C)c1cc(NC(=O)Nc2ccc(-c3cnc4c(c3)CCCN4)cc2)no1 [Example 12, 1-(5-tert-butylisoxazol-3-yl)-3-(4-(5,6,7,8-tetrahydro-1,8-naphthyridin-3-yl)phenyl)urea]
Kd [1]: 1 to 10 nM | Kd [2]: 1 to 10 nM | Kd [3]: ≤ 10 nM | IC50 [4]: 1 to 10 nM | Kinase specificty: S(10)-359 panel [5]: A (A≦0.1)

SMILES: CC(C)(C)c1cc(NC(=O)Nc2ccc(-c3cnc(N)c(CN4CCOCC4)c3)cc2)no1 [Example 13, 1-(4-(6-amino-5-(morpholinomethyl)pyridin-3-yl)phenyl)-3-(5-tert-butylisoxazol-3-yl)urea]
Kd [1]: 1 to 10 nM | Kd [2]: 1 to 10 nM | Kd [3]: 10 to 100 nM | IC50 [4]: 10 to 100 nM | Kinase specificty: S(10)-359 panel [5]: B (0.1<B≦0.2 nM)

SMILES: CC(C)(C)c1cc(NC(=O)Nc2ccc(-c3ccc(N)nc3)cc2F)no1 [Example 14, 1-[4-(6-aminopyridin-3-yl)-2-fluorophenyl]-3-(5-tert-butylisoxazol-3-yl)-urea]
Kd [1]: ≤ 1 nM | Kd [2]: ≤ 1 nM | Kd [3]: ≤ 10 nM | IC50 [4]: ≤ 1 nM | Kinase specificty: S(10)-359 panel [5]: B (0.1<B≦0.2 nM)

SMILES: CC(C)(C)c1cc(NC(=O)Nc2ccc(-c3ccc(N)nc3)cc2Cl)no1 [Example 15, 1-(4-(6-aminopyridin-3-yl)-2-chlorophenyl)-3-(5-tert-butylisoxazol-3-yl)urea]
Kd [1]: 1 to 10 nM | Kd [2]: 1 to 10 nM | Kd [3]: 10 to 100 nM | IC50 [4]: 10 to 100 nM | Kinase specificty: S(10)-359 panel [5]: B (0.1<B≦0.2 nM)

SMILES: CC(C)(C)c1cc(NC(=O)Nc2ccc(-c3ccc(N)nc3)c(Cl)c2)no1 [Example 16, 1-(4-(6-aminopyridin-3-yl)-3-chlorophenyl)-3-(5-tert-butylisoxazol-3-yl)urea]
Kd [1]: ≤ 1 nM | Kd [2]: ≤ 1 nM | Kd [3]: 10 to 100 nM | IC50 [4]: 1 to 10 nM | Kinase specificty: S(10)-359 panel [5]: B (0.1<B≦0.2 nM)

SMILES: CC(C)(C)c1cc(NC(=O)Nc2ccc(-c3ccc(N)nc3)cn2)no1 [Example 17, 1-(6′-amino-[3,3′]bipyridinyl-6-yl)-3-(5-tert-butylisoxazol-3-yl)urea]
Kd [1]: ≤ 1 nM | Kd [2]: ≤ 1 nM | Kd [3]: ≤ 10 nM | IC50 [4]: 1 to 10 nM | Kinase specificty: S(10)-359 panel [5]: A (A≦0.1)
